Values after ≈ are worked out from the molar mass of the structure shown.

Format in all cases: functional
In one test the test system is Bacillus licheniformis. Kind of test: Antibacterial activity against Bacillus licheniformis KX785171.1 assessed as reduction in cell viability after 24 hrs by microdilution method. Background: In broth dilution the organism is exposed to a series of concentrations in liquid medium.
Test [1] in a line: Antibacterial activity against Escherichia fergusonii CU928158.2 assessed as reduction in cell viability after 24 hrs by microdilution method.
In another test the test system is Staphylococcus aureus. Nature of the test: Antibacterial activity against Staphylococcus aureus CP011526.1 assessed as reduction in cell viability after 24 hrs by microdilution method.
The next test concerns Pseudomonas aeruginosa. Nature of the test: Antibacterial activity against Pseudomonas aeruginosa NR-117678.1 assessed as reduction in cell viability after 24 hrs by microdilution method.
In another test the test system is Enterobacter hormaechei. Nature of the test: Antibacterial activity against Enterobacter xiangfangensis CP017183.1 assessed as reduction in cell viability after 24 hrs by microdilution method. Particulars: subsp. xiangfangensis CP017183.1.

For `COc1cc(O)cc(C2=COC(C(=O)O)=C[C@H]2C)c1`, the MIC (commonly the lowest concentration found to suppress growth) in the test on Bacillus licheniformis was 21.6 µg/mL (≈ 82.4 µM); in test [1] it was 13.2 µg/mL (≈ 50.3 µM); in the test on Staphylococcus aureus, > 25 µg/mL; in the test on Pseudomonas aeruginosa, 18.4 µg/mL (≈ 70.2 µM); in the test on Enterobacter hormaechei it was 15.8 µg/mL (≈ 60.2 µM).
For the compound `COc1cc(O)c2c3c(c(C)cc(C(=O)O)c13)[C@H](OC)OC2=O`, the MIC in the test on Bacillus licheniformis was 3.8 µg/mL (≈ 11.9 µM); in test [1], 11.2 µg/mL (≈ 35.2 µM); with Staphylococcus aureus, 6.3 µg/mL (≈ 19.8 µM); in the test with Pseudomonas aeruginosa, 4.7 µg/mL (≈ 14.8 µM); with Enterobacter hormaechei, 7.8 µg/mL (≈ 24.5 µM).
`COc1cc(O)c(C(=O)O)c(C2=COC(C(=O)O)=C[C@H]2C)c1`: the MIC turned out to be 9.7 µg/mL (≈ 31.7 µM) with Bacillus licheniformis; 7.8 µg/mL (≈ 25.5 µM) in test [1]; 10.3 µg/mL (≈ 33.6 µM) in the test with Staphylococcus aureus; 5.2 µg/mL (≈ 17 µM) in the test on Pseudomonas aeruginosa; 3.7 µg/mL (≈ 12.1 µM) with Enterobacter hormaechei.
Taken in the same sequence, the figures for `COc1cc(O)c(C(=O)O)c(C2=COC(C(=O)O)=C[C@H]2C)c1C(=O)O` were 8.4 µg/mL (≈ 24 µM), 2.7 µg/mL (≈ 7.71 µM), 6.8 µg/mL (≈ 19.4 µM), 1.4 µg/mL (≈ 4 µM) and 0.9 µg/mL (≈ 2.57 µM).
Taken in the same sequence, the figures for `NCC[C@H](O)C(=O)N[C@@H]1C[C@H](N)[C@@H](O[C@H]2O[C@H](CN)[C@@H](O)[C@H](O)[C@H]2O)[C@H](O)[C@H]1O[C@H]1O[C@H](CO)[C@@H](O)[C@H](N)[C@H]1O` [AMIKACIN] were 0.3 µg/mL (≈ 0.512 µM), 0.4 µg/mL (≈ 0.683 µM), 0.5 µg/mL (≈ 0.854 µM), 0.8 µg/mL (≈ 1.37 µM) and 0.2 µg/mL (≈ 0.342 µM).
Turning to `O=c1cc(CO)occ1O` [KOJIC ACID], the MIC was 14.8 µg/mL (≈ 104 µM) in the test with Bacillus licheniformis; 3.5 µg/mL (≈ 24.6 µM) in test [1]; 9.5 µg/mL (≈ 66.8 µM) in the test with Staphylococcus aureus; 2.9 µg/mL (≈ 20.4 µM) in the test with Pseudomonas aeruginosa; 1.6 µg/mL (≈ 11.3 µM) in the test on Enterobacter hormaechei.
